Tests used:
[1] = Highest frequency of acute liver toxicity observed during clinical trials, expressed as a percentage. [column '% AIGUE' in source]; details: human
[2] = Highest frequency of moderate liver toxicity observed during clinical trials, expressed as a percentage. [column '% BIOL' in source]; details: human
[3] = human, serum, 4383 h
[4] = human, serum
[5] = human
[6] = human; remark: listed apart in the source
[7] = Proposed mechanism(s) of liver damage. [column 'MEC' in source]; details: human
[8] = human; remark: listed apart in the source
[9] = human; remark: listed apart in the source
[10] = human; remark: listed apart in the source
[11] = human; remark: listed apart in the source
[12] = human; remark: listed apart in the source
[13] = human; remark: listed apart in the source
[14] = human; remark: listed apart in the source
[15] = human, serum; remark: listed apart in the source
[16] = Times to onset, minimal and maximal, observed in the indexed observations. [column 'DELAI' in source]; details: human
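Throughout, for Hepatotoxicity (association with vascular disease): count of indexed literature references reporting vascular liver injury in humans, e.g. peliosis hepatitis, hepatic veno-occlusive disease or Budd-Chiari syndrome.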
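Throughout, for Hepatotoxicity (benign tumour): value is a count of indexed literature references citing a benign tumour confirmed by histopathology.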
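Throughout, for Hepatotoxicity (choleostasis): human cholestatic liver injury, shown by histopathology or by peak ALT or AST elevation over alkaline phosphatase ratio below 2, value counts indexed literature reports.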
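Throughout, for Hepatotoxicity (chronic liver disease): chronic liver injury confirmed by histopathology or persistently raised serum aminotransferase activity beyond 6 months, value given as the count of indexed literature references.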
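Throughout, for Hepatotoxicity (cirrhosis): value is a count of indexed literature references reporting cirrhosis confirmed by histopathology.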
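Throughout, for Hepatotoxicity (cytolytic): human cytolytic liver injury, shown by histopathology or by a ratio above 5 of peak ALT or AST elevation to alkaline phosphatase elevation, value counts indexed references.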
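Throughout, for Hepatotoxicity (granulomatous hepatitis): value is a count of indexed literature references reporting granulomatous liver disease confirmed by histopathology.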
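Throughout, for Hepatotoxicity (malignant tumour): malignant tumour confirmed by histopathology, value gives the count of indexed literature references reporting it.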
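Throughout, for Hepatotoxicity (severe hepatitis): human clinical data: severe hepatitis, meaning potentially life-threatening liver failure or clinically observed cases, the value counts how many indexed literature references report it.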
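Throughout, for Hepatotoxicity (steatosis): steatosis confirmed by histopathology, value is the count of indexed references.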

| Compound | Hepatotoxicity (acute) [1] | Hepatotoxicity (moderate) [2] | Hepatotoxicity (chronic liver disease) [3] | Hepatotoxicity (acute) [4] | Hepatotoxicity (granulomatous hepatitis) [5] | Hepatotoxicity (cytolytic) [6] | Hepatotoxicity (benign tumour) [8] | Hepatotoxicity (severe hepatitis) [9] | Hepatotoxicity (steatosis) [10] | Hepatotoxicity (malignant tumour) [11] | Hepatotoxicity (cirrhosis) [12] | Hepatotoxicity (association with vascular disease) [13] | Hepatotoxicity (choleostasis) [14] | Hepatotoxicity (moderate) [15] | Hepatotoxicity (time to onset) [16] | other results |
| --- | --- | --- | --- | --- | --- | --- | --- | --- | --- | --- | --- | --- | --- | --- | --- | --- |
| CN(Cc1cnc2nc(N)nc(N)c2n1)c1c(Cl)cc(C(=O)N[C@@H](CCC(=O)O)C(=O)O)cc1Cl | 0% | 16.7% | 0 | 0 | 0 | 0 | 0 | 0 | 0 | 0 | 0 | 0 | 0 | 2 |  | Hepatotoxicity (mechanism) [7]: Dose-dependant |
| O=C(NO)c1ccc(O)c(O)c1 | 0% | 0% | 0 | 1 | 0 | 0 | 0 | 0 | 0 | 0 | 0 | 0 | 0 | 1 |  | Hepatotoxicity (mechanism) [7]: Dose-dependant |
| COc1ccccc1Oc1c(NS(=O)(=O)c2ccc(C(C)(C)C)cc2)nc(-c2ncccn2)nc1OCCO [BOSENTAN] | 5.3% | 15% | 0 | 5 | 0 | 4 | 0 | 0 | 0 | 0 | 0 | 0 | 1 | 12 |  | Hepatotoxicity (mechanism) [7]: Dose-dependant |
| CCCCNC(=N)NC(=N)N [BUFORMIN] |  |  | 0 | 1 |  |  | 0 |  | 0 | 0 | 0 | 0 |  | 0 |  | Hepatotoxicity (acute) ([1]; Liver): 0%; Hepatotoxicity (moderate) ([2]; Liver): 0%; Hepatotoxicity (granulomatous hepatitis) ([5]; Liver): 0; Hepatotoxicity (cytolytic) ([6]; Liver): 0; Hepatotoxicity (mechanism) ([7]; Liver): Allergic; Hepatotoxicity (severe hepatitis) ([9]; Liver): 0; Hepatotoxicity (choleostasis) ([14]; Liver): 0 |
| CC(C)(O/N=C(\C(=O)N[C@@H]1C(=O)N2C(C(=O)[O-])=C(C[n+]3ccccc3)CS[C@H]12)c1csc(N)n1)C(=O)O [CEFTAZIDIME] | 2.5% | 35.7% | 0 | 2 | 0 | 0 | 0 | 0 | 0 | 0 | 0 | 0 | 2 | 77 |  | Hepatotoxicity (mechanism) [7]: Dose-dependant |
| CN1CCN(C(=O)OC2c3nccnc3C(=O)N2c2ccc(Cl)cn2)CC1 (stereo not given) [ZOPICLONE] | 0% | 0% | 0 | 1 | 0 | 1 | 0 | 0 | 0 | 0 | 0 | 0 | 1 | 0 | 6 months |  |
| COLESTIPOL | 0% | 0.8% | 0 | 1 | 0 | 1 | 0 | 0 | 0 | 0 | 0 | 0 | 0 | 1 | 6 months |  |
| DALTEPARIN SODIUM | 0% | 2.6% | 0 | 0 | 0 | 0 | 0 | 0 | 0 | 0 | 0 | 0 | 0 | 3 | 4 days |  |
| IVERMECTIN | 0% | 23.3% | 0 | 0 | 0 | 0 | 0 | 0 | 0 | 0 | 0 | 0 | 0 | 5 | 2 days - 1 week |  |
| MEGLUMINE ANTIMONATE | 0% | 6% | 0 | 1 | 0 | 0 | 0 | 0 | 0 | 0 | 0 | 0 | 0 | 3 | 6 hours - 6 days |  |
| MUROMONAB-CD3 | 0% | 0% | 0 | 1 | 0 | 1 | 0 | 0 | 0 | 0 | 0 | 0 | 0 | 0 | 1 days |  |
| SERRAPEPTASE | 0% | 0% | 0 | 1 | 1 | 0 | 0 | 0 | 0 | 0 | 0 | 0 | 0 | 0 | 2 days |  |
| SPIRAMYCIN | 0% | 0% | 0 | 4 | 0 | 0 | 0 | 0 | 0 | 0 | 0 | 0 | 3 | 0 | 1 day - 4 weeks |  |
| UROKINASE | 0% | 0% | 0 | 1 | 0 | 1 | 0 | 0 | 0 | 0 | 0 | 0 | 0 | 0 | 2 days |  |
| [3-(8,8-Diethyl-2-aza-8-germa-spiro[4.5]dec-2-yl)-propyl]-dimethyl-amine | 6.5% | 27% | 0 | 2 | 0 | 0 | 0 | 0 | 0 | 0 | 0 | 0 | 0 | 6 | 8 weeks |  |

From ChEMBL document CHEMBL3137667, “[Drug-induced liver injury; fourteenth updated edition of the bibliographic database of liver injuries and related drugs]” (Gastroenterol Clin Biol, 2004)
